Experimental data: ChEMBL document CHEMBL3885861, “Open TG-GATES”

Organism: Rattus norvegicus
Experiment: Open TG-GATES - Regimen: Single
Format: toxicity, organism-based, Sprague-Dawley
Parameters: regimen Single, gender Male, age 6 weeks
Settings: in vivo, po, 10 mg/kg, route gavage, dose level Low; for APTT / Bas / Eos / Fbg / Hb / Ht / Lym / MCH / MCHC / MCV / Mono / Neu / PT / Plat / RBC / Ret / WBC: tissue Blood; for KIDNEY_L / KIDNEY_R / KIDNEY_TOTAL: tissue Kidney; for LIVER: tissue Liver; for A/G / ALP / ALT / AST / BUN / CRE / Ca / Cl / DBIL / GLC / IP / K / LDH / Na / PL / RALB / TBIL / TC / TG / TP / gamma-GTP: tissue Plasma

## CC1=C(/C=C/C(C)=C/C=C/C(C)=C/CO)C(C)(C)CCC1 [RETINOL]
3 h
  TERMINAL_BW: 201.8 g
  APTT: 21.9 s
  Bas: 0%
  Eos: 0.8%
  Fbg: 307.4 mg/dL
  Hb: 13.1 g/dL
  Ht: 37.7%
  Lym: 81.4%
  MCH: 21.5 pg
  MCHC: 34.6%
  MCV: 62.2 fL
  Mono: 2.6%
  Neu: 14.8%
  PT: 15.9 s
  Plat: 124.2 x10_4/uL
  RBC: 606.4 x10_4/ul
  Ret: 8.8%
  WBC: 95.9 x10_2/uL
  KIDNEY_L: 0.9 g
  KIDNEY_R: 0.9 g
  KIDNEY_TOTAL: 1.8 g
  LIVER: 9.3 g
  A/G: 1.3
  ALP: 1940 IU/L
  ALT: 41.2 IU/L
  AST: 75.2 IU/L
  BUN: 13.4 mg/dL
  CRE: 0.1 mg/dL
  Ca: 10.8 mg/dL
  Cl: 106.6 meq/L
  DBIL: 0 mg/dL
  GLC: 171.6 mg/dL
  IP: 8.6 mg/dL
  K: 4.1 meq/L
  LDH: 253.6 IU/L
  Na: 141.6 meq/L
  PL: 160.6 mg/dL
  RALB: 3.2 g/dL
  TBIL: 0.006 mg/dL
  TC: 81.2 mg/dL
  TG: 123.4 mg/dL
  TP: 5.6 g/dL
  gamma-GTP: 2.2 IU/L
6 h
  TERMINAL_BW: 200 g
  APTT: 21 s
  Bas: 0%
  Eos: 1%
  Fbg: 312 mg/dL
  Hb: 13.5 g/dL
  Ht: 39.4%
  Lym: 80.4%
  MCH: 21.4 pg
  MCHC: 34.3%
  MCV: 62.3 fL
  Mono: 2.6%
  Neu: 15.4%
  PT: 15.6 s
  Plat: 119.1 x10_4/uL
  RBC: 632.2 x10_4/ul
  Ret: 8.1%
  WBC: 81.2 x10_2/uL
  KIDNEY_L: 0.9 g
  KIDNEY_R: 0.9 g
  KIDNEY_TOTAL: 1.9 g
  LIVER: 8.6 g
  A/G: 1.3
  ALP: 1760 IU/L
  ALT: 35.8 IU/L
  AST: 69.2 IU/L
  BUN: 9.4 mg/dL
  CRE: 0.1 mg/dL
  Ca: 11 mg/dL
  Cl: 107.4 meq/L
  DBIL: 0.008 mg/dL
  GLC: 180 mg/dL
  IP: 10.3 mg/dL
  K: 4.3 meq/L
  LDH: 223 IU/L
  Na: 142.8 meq/L
  PL: 143.8 mg/dL
  RALB: 3.1 g/dL
  TBIL: 0.016 mg/dL
  TC: 74.4 mg/dL
  TG: 98.4 mg/dL
  TP: 5.4 g/dL
  gamma-GTP: 0.8 IU/L
9 h
  TERMINAL_BW: 196.8 g
  APTT: 21.8 s
  Bas: 0%
  Eos: 0.6%
  Fbg: 296.8 mg/dL
  Hb: 13.2 g/dL
  Ht: 38.3%
  Lym: 78%
  MCH: 21.6 pg
  MCHC: 34.4%
  MCV: 62.9 fL
  Mono: 2.4%
  Neu: 18.4%
  PT: 15.6 s
  Plat: 128.6 x10_4/uL
  RBC: 610.2 x10_4/ul
  Ret: 7.6%
  WBC: 92.3 x10_2/uL
  KIDNEY_L: 0.9 g
  KIDNEY_R: 0.9 g
  KIDNEY_TOTAL: 1.8 g
  LIVER: 7.8 g
  A/G: 1.3
  ALP: 1939.6 IU/L
  ALT: 34.8 IU/L
  AST: 70.6 IU/L
  BUN: 9.6 mg/dL
  CRE: 0.1 mg/dL
  Ca: 10.9 mg/dL
  Cl: 107.4 meq/L
  DBIL: 0.004 mg/dL
  GLC: 187 mg/dL
  IP: 10.6 mg/dL
  K: 4 meq/L
  LDH: 242.8 IU/L
  Na: 141.4 meq/L
  PL: 127.4 mg/dL
  RALB: 3 g/dL
  TBIL: 0.012 mg/dL
  TC: 69.2 mg/dL
  TG: 50.2 mg/dL
  TP: 5.3 g/dL
  gamma-GTP: 2.8 IU/L
24 h
  TERMINAL_BW: 208.4 g
  APTT: 21.5 s
  Bas: 0%
  Eos: 1%
  Fbg: 273.4 mg/dL
  Hb: 13.2 g/dL
  Ht: 38.4%
  Lym: 80.2%
  MCH: 21.4 pg
  MCHC: 34.5%
  MCV: 62.2 fL
  Mono: 3.2%
  Neu: 15%
  PT: 16.2 s
  Plat: 123.1 x10_4/uL
  RBC: 618 x10_4/ul
  Ret: 7.5%
  WBC: 81 x10_2/uL
  KIDNEY_L: 1 g
  KIDNEY_R: 1 g
  KIDNEY_TOTAL: 2 g
  LIVER: 9.8 g
  A/G: 1.4
  ALP: 1455.4 IU/L
  ALT: 44.6 IU/L
  AST: 78.4 IU/L
  BUN: 16.8 mg/dL
  CRE: 0.2 mg/dL
  Ca: 10.6 mg/dL
  Cl: 106.8 meq/L
  DBIL: 0.002 mg/dL
  GLC: 187.4 mg/dL
  IP: 6.9 mg/dL
  K: 4.5 meq/L
  LDH: 318.8 IU/L
  Na: 141.6 meq/L
  PL: 135.2 mg/dL
  RALB: 3.1 g/dL
  TBIL: 0.002 mg/dL
  TC: 65 mg/dL
  TG: 114.6 mg/dL
  TP: 5.4 g/dL
  gamma-GTP: 1.6 IU/L
